Measurements reported in the supplement of paper PMC9663587.

Columns and labels:
Neratinib/HKI272 = compound: CCOc1cc2ncc(C#N)c(Nc3ccc(OCc4ccccn4)c(Cl)c3)c2cc1NC(=O)/C=C/CN(C)C [Neratinib/HKI272]; test: increase in dead-cell fraction, 72 h; higher = more death;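 note: breast cancer cell lines in 384-well plates, stained with Hoechst plus LIVE/DEAD far red dye and imaged, cells above an LDR intensity threshold counted dead, Hoechst-negative corpses included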
BSJ-03-123 = compound: CC(=O)c1c(C)c2cnc(Nc3ccc(N4CCN(CCOCCOCCOCCNC(=O)COc5cccc6c5C(=O)N(C5CCC(=O)NC5=O)C6=O)CC4)cn3)nc2n(C2CCCC2)c1=O [BSJ-03-123]; test: as above
[1] = compound: CC(=O)c1c(C)c2cnc(Nc3ccc(N4CCNCC4)cn3)nc2n(C2CCCC2)c1=O; test: as above
[2] = compound: CCc1cnn2c(NCc3ccc[n+]([O-])c3)cc(N3CCCC[C@H]3CCO)nc12; test: as above
YKL-5-124 = compound: C=CC(=O)Nc1ccc(C(=O)Nc2[nH]nc3c2CN(C(=O)N[C@H](CN(C)C)c2ccccc2)C3(C)C)cc1 [YKL-5-124]; test: as above
THZ531 [3] = compound: T1, CN(C)C/C=C/C(=O)Nc1ccc(C(=O)N2CCC[C@@H](Nc3ncc(Cl)c(-c4c[nH]c5ccccc45)n3)C2)cc1 [THZ531]; test: as above
THZ1 [4] = compound: T2, CN(C)C/C=C/C(=O)Nc1ccc(C(=O)Nc2cccc(Nc3ncc(Cl)c(-c4c[nH]c5ccccc45)n3)c2)cc1 [THZ1]; test: as above
LEE011/Ribociclib = compound: CN(C)C(=O)c1cc2cnc(Nc3ccc(N4CCNCC4)cn3)nc2n1C1CCCC1 [LEE011/Ribociclib]; test: as above
[5] = compound: CO[C@@H](C)Cn1c(=O)n(C)c2cnc3ccc(-c4cncc(C(C)(C)O)c4)cc3c21
[6] = compound: CC(=O)Nc1cccc(-n2c(=O)n(C3CC3)c(=O)c3c(Nc4ccc(I)cc4F)n(C)c(=O)c(C)c32)c1
Alpelisib/BYL719 = compound: Cc1nc(NC(=O)N2CCC[C@H]2C(N)=O)sc1-c1ccnc(C(C)(C)C(F)(F)F)c1 [Alpelisib/BYL719]
[7] = compound: CCCCOc1c(C(=O)c2c(F)cc(C)cc2F)c[nH]c2nncc1-2
AZD1775 = compound: C=CCn1c(=O)c2cnc(Nc3ccc(N4CCN(C)CC4)cc3)nc2n1-c1cccc(C(C)(C)O)n1 [AZD1775]
[8] = compound: COc1ccc2c(c1)[C@]1(C[C@H]1c1ccc3c(/C=C/c4ccc(CN5C[C@@H](C)O[C@@H](C)C5)cc4)n[nH]c3c1)C(=O)N2
THZ531 [9] = compound: T1, THZ531
THZ1 [10] = compound: T2, THZ1
BVD523 = compound: CC(C)Nc1cc(-c2c[nH]c(C(=O)N[C@H](CO)c3cccc(Cl)c3)c2)c(Cl)cn1 [BVD523]
Rucaparib = compound: CNCc1ccc(-c2[nH]c3cc(F)cc4c3c2CCNC4=O)cc1 [Rucaparib]
Cediranib/AZD2171 = compound: COc1cc2c(Oc3ccc4[nH]c(C)cc4c3F)ncnc2cc1OCCCN1CCCC1 [Cediranib/AZD2171]
Saracatinib/AZD0530 = compound: CN1CCN(CCOc2cc(OC3CCOCC3)c3c(Nc4c(Cl)ccc5c4OCO5)ncnc3c2)CC1 [Saracatinib/AZD0530]
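Throughout, for GR50, 72 h: breast cancer and non-malignant breast epithelial cell lines, Deep Dye Drop or Dye Drop imaging, nine half-log doses, GR normalized to time-zero plates and DMSO-only controls.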

UACC812
increase in dead-cell fraction (Neratinib/HKI272; 0.0003162 µM): -0.0016
increase in dead-cell fraction (Neratinib/HKI272; 0.001 µM): 0.0009
increase in dead-cell fraction (Neratinib/HKI272; 0.003162 µM): 0.0017
increase in dead-cell fraction (Neratinib/HKI272; 0.01 µM): 0.0044
increase in dead-cell fraction (Neratinib/HKI272; 0.03162 µM): 0.0198
increase in dead-cell fraction (Neratinib/HKI272; 0.1 µM): 0.0311
increase in dead-cell fraction (Neratinib/HKI272; 0.3162 µM): 0.0666
increase in dead-cell fraction (Neratinib/HKI272; 1 µM): 0.0547
increase in dead-cell fraction (Neratinib/HKI272; 3.162 µM): 0.114
increase in dead-cell fraction (BSJ-03-123; 0.001 µM): 0.0002
increase in dead-cell fraction (BSJ-03-123; 0.003162 µM): 0.0007
increase in dead-cell fraction (BSJ-03-123; 0.01 µM): 0.0021
increase in dead-cell fraction (BSJ-03-123; 0.03162 µM): 0.0004
increase in dead-cell fraction (BSJ-03-123; 0.1 µM): 0.0012
increase in dead-cell fraction (BSJ-03-123; 0.3162 µM): -0.0006
increase in dead-cell fraction (BSJ-03-123; 1 µM): -0.0002
increase in dead-cell fraction (BSJ-03-123; 3.162 µM): 0.0096
increase in dead-cell fraction (BSJ-03-123; 10 µM): 0.0406
increase in dead-cell fraction ([1]; 0.0003162 µM): -0.0049
increase in dead-cell fraction ([1]; 0.001 µM): 0.0002
increase in dead-cell fraction ([1]; 0.003162 µM): -0.0042
increase in dead-cell fraction ([1]; 0.01 µM): 0.005
increase in dead-cell fraction ([1]; 0.03162 µM): 0.0019
increase in dead-cell fraction ([1]; 0.1 µM): 0.0099
increase in dead-cell fraction ([1]; 0.3162 µM): 0.0073
increase in dead-cell fraction ([1]; 1 µM): 0.0136
increase in dead-cell fraction ([1]; 3.162 µM): 0.0146
increase in dead-cell fraction ([2]; 0.0001 µM): -0.0048
increase in dead-cell fraction ([2]; 0.0003162 µM): -0.0023
increase in dead-cell fraction ([2]; 0.001 µM): -0.0065
increase in dead-cell fraction ([2]; 0.003162 µM): -0.0073
increase in dead-cell fraction ([2]; 0.01 µM): -0.007
increase in dead-cell fraction ([2]; 0.03162 µM): 0.0324
increase in dead-cell fraction ([2]; 0.1 µM): 0.478
increase in dead-cell fraction ([2]; 0.3162 µM): 0.529
increase in dead-cell fraction ([2]; 1 µM): 0.523
increase in dead-cell fraction (YKL-5-124; 0.001 µM): 0.0021
increase in dead-cell fraction (YKL-5-124; 0.003162 µM): 0.0107
increase in dead-cell fraction (YKL-5-124; 0.01 µM): 0.0182
increase in dead-cell fraction (YKL-5-124; 0.03162 µM): 0.0223
increase in dead-cell fraction (YKL-5-124; 0.1 µM): 0.0246
increase in dead-cell fraction (YKL-5-124; 0.3162 µM): 0.0283
increase in dead-cell fraction (YKL-5-124; 1 µM): 0.0151
increase in dead-cell fraction (YKL-5-124; 3.162 µM): 0.027
increase in dead-cell fraction (YKL-5-124; 10 µM): 0.0485
increase in dead-cell fraction (THZ531 [3]; 0.0001 µM): 0.0045
increase in dead-cell fraction (THZ531 [3]; 0.0003162 µM): 0.0009
increase in dead-cell fraction (THZ531 [3]; 0.001 µM): 0.0012
increase in dead-cell fraction (THZ531 [3]; 0.003162 µM): -0.0009
increase in dead-cell fraction (THZ531 [3]; 0.01 µM): 0.0008
increase in dead-cell fraction (THZ531 [3]; 0.03162 µM): -0.0001
increase in dead-cell fraction (THZ531 [3]; 0.1 µM): -0.0004
increase in dead-cell fraction (THZ531 [3]; 0.3162 µM): 0.0004
increase in dead-cell fraction (THZ531 [3]; 1 µM): 0.0127
increase in dead-cell fraction (THZ1 [4]; 0.0001 µM): -0.003
increase in dead-cell fraction (THZ1 [4]; 0.0003162 µM): 0.0027
increase in dead-cell fraction (THZ1 [4]; 0.001 µM): -0.0004
increase in dead-cell fraction (THZ1 [4]; 0.003162 µM): 0.0019
increase in dead-cell fraction (THZ1 [4]; 0.01 µM): 0.0019
increase in dead-cell fraction (THZ1 [4]; 0.03162 µM): -0.0013
increase in dead-cell fraction (THZ1 [4]; 0.1 µM): -0.0018
increase in dead-cell fraction (THZ1 [4]; 0.3162 µM): 0.0001
increase in dead-cell fraction (THZ1 [4]; 1 µM): 0.0639
increase in dead-cell fraction (LEE011/Ribociclib; 0.001 µM): 0.0064
increase in dead-cell fraction (LEE011/Ribociclib; 0.003162 µM): 0.0022
increase in dead-cell fraction (LEE011/Ribociclib; 0.01 µM): 0.0036
increase in dead-cell fraction (LEE011/Ribociclib; 0.03162 µM): 0.0049
increase in dead-cell fraction (LEE011/Ribociclib; 0.1 µM): 0.0102
increase in dead-cell fraction (LEE011/Ribociclib; 0.3162 µM): 0.0156
increase in dead-cell fraction (LEE011/Ribociclib; 1 µM): 0.0075
increase in dead-cell fraction (LEE011/Ribociclib; 3.162 µM): 0.017
increase in dead-cell fraction (LEE011/Ribociclib; 10 µM): 0.0125
GR50, 72 h [5]: < 0.001 µM
GR50, 72 h [6]: 0.00179 µM
GR50, 72 h (Alpelisib/BYL719): 0.588 µM
GR50, 72 h [7]: < 0.001 µM
GR50, 72 h (AZD1775): 3.03 µM
GR50, 72 h [8]: 0.0127 µM
GR50, 72 h (THZ531 [9]): > 1 µM
GR50, 72 h (THZ1 [10]): 0.691 µM
GR50, 72 h (BVD523): 1.32 µM
GR50, 72 h (Rucaparib): > 10 µM
GR50, 72 h (Cediranib/AZD2171): 1.04 µM
GR50, 72 h (Saracatinib/AZD0530): 0.0189 µM
